Common to all, as to format: in vivo, mouse
Assay [1] concerns mdx mice. In words: Morbidity, muscle mass, muscle function, plethysmography, echocardiography, mdx mice, 40 weeks. To be noted: weekly prednisone. Here is the method:
Histology. Excised tissues (muscles, omental fat, heart) were placed in 10% formaldehyde (Cat #245-684; Fisher Scientific, Waltham, Mass.) for histologic processing. Seven μm sections from the center of paraffin-embedded muscles were stained with hematoxylin and eosin (H&E; cat #12013B, 1070C; Newcomer Supply, Middleton, Wis.) and Masson's trichrome (Cat #HT-15; Sigma-Aldrich; St. Louis, Mo.). Myofiber/adipocyte CSA quantitation was conducted on 400 myofibers/adipocytes per tissue per mouse. Imaging was performed using a Zeiss Axio Observer A1 microscope, using 10× and 20× (short-range) objectives. Brightfield pictures were acquired via Gryphax software (version 1.0.6.598; Jenoptik, Jena, Germany). Area quantitation was performed by means of ImageJ (Schneider et al., 2012). Sample processing, imaging and CSA quantitation were conducted blinded to treatment groups.
Muscle function, whole-body plethysmography, echocardiography. Forelimb grip strength was monitored using a meter (Cat #1027SM; Columbus Instruments, Columbus, Ohio) blinded to treatment groups. Animals performed ten pulls with 5 seconds rest on a flat surface between pulls. Immediately before sacrifice, in situ tetanic force from tibialis anterior muscle was measured using a Whole Mouse Test System (Cat #1300A; Aurora Scientific, Aurora, ON, Canada) with a 1N dual-action lever arm force transducer (3000-LR, Aurora Scientific, Aurora, ON, Canada) in anesthetized animals (0.8 I/min of 1.5% isoflurane in 100% O2). […] Time of contraction was assessed as time to max tetanic value within the 0.0-0.5 sec range of each tetanic contraction, while time of relaxation was assessed as time to 90% min tetanic value within the 0.5-0.8 sec range of every tetanus. […] Data was recorded for a total of 15 minutes broken into 3 consecutive 5-minute periods. […] Cardiac function was assessed by echocardiography, which was conducted under anesthesia (0.8 L/min of 1.5% vaporized isoflurane in 100% O2) on mice between 2 and 5 days before sacrifice. […]

For assay [2], the system named is mdx mice. In words: Metabolic cages (indirect calorimetry), mdx mice, 40 weeks. To be noted: weekly prednisone. Here is the method: Metabolic cages. VO2 (ml/h/kg) and energy expenditure to body weight (kcal/h/kg) were assessed via indirect calorimetry using the TSE Automated Phenotyping System PhenoMaster (TSE system, Chesterfield, Mo.). Mice were singly housed in their home cages in an enclosed environmental chamber (part of the TSE system) with controlled temperature and light/dark cycles (12 hours each; 6 AM-6 PM). […] Measurements of CO2 production and O2 consumption occurred using the attached gas analyzer to assess energy expenditure. In addition, physical activity in three dimensions was monitored via infrared beam breaks through frames mounted on the perimeter of the metabolic cages. Enrichment items were omitted to avoid insulation from sensors and infrared light beam path obstruction. Results are expressed as 12 hour-period values (light/dark; 10 values per mouse). Metabolic cage assays were conducted blinded to treatment groups.

For assay [3], the system named is mdx; Dysf-null; Sgcg-null mice. In words: Once-weekly glucocorticoids in three murine models of muscle disease. To be noted: 1 mg/kg once-weekly, contrary to daily dosing. The text has this:
Glucocorticoid steroids are widely prescribed drugs for chronic inflammatory conditions, and their daily intake generally correlates with muscle wasting and weakness, osteoporosis, obesity and metabolic disorders. […] (Quattrocelli et al, J Clin Invest 2017; Quattrocelli et al, Am J Pathol 2017; Quattrocelli et al., JCI Insight. 2019 Dec. 19; 4(24). pii: 132402. doi: 10.1172/jci.insight.132402).

Turning to `C[C@]12C=CC(=O)C=C1CC[C@@H]1[C@@H]2C(=O)C[C@@]2(C)[C@H]1CC[C@]2(O)C(=O)CO` [prednisone, Prednisone], in the assay with mdx mice [1] (mdx male mice, 40 weeks from 6 weeks of age), the morbidity result is on record as “improved”. For the same compound, in the assay on mdx mice [1] (mdx mice, 40 weeks), the “muscle mass and force” value is listed as “increased”; the “performance of limb muscles, respiratory muscles, and heart” value was “improved”. In addition, the “oxygen consumption (VO2) and energy expenditure during nocturnal activity” value in the assay on mdx mice [2] is reported as “increased”. In addition, the “muscle force and mass” value in assay [3] is given as “improved”.

These data come from patent US20220062299A1, “USE OF GLUCOCORTICOID STEROIDS IN PREVENTING AND TREATING CONDITIONS OF MUSCLE WASTING, AGING AND METABOLIC DISORDER” (NORTHWESTERN UNIVERSITY, priority 2018, published 2022).
